# In ChEMBL document CHEMBL5360625, “Design, Synthesis, and Antitumor Activity Evaluation of 2-Arylmethoxy-4-(2,2'-dihalogen-substituted biphenyl-3-ylmethoxy) Benzylamine Derivatives as Potent PD-1/PD-L1 Inhibitors” (J Med Chem, 2023):
# Legend:
# [1] = molecular target: Programmed cell death protein 1/Programmed cell death 1 ligand 1 (Homo sapiens, UniProt Q9NZQ7); assay: Inhibition of PD-1/PD-L1 interaction (unknown origin) incubated for 1 hr by HTRF assay; assay type: protein-complex assay
# [2] = system: PBMC; assay: Cytotoxicity against human PBMC cells assessed as reduction in cell viability at 1 to 4 uM measured after 48 hrs by CCK-8 assay; assay type: toxicity, cell-based; details: dose 1-4 µM
# [3] = Tmax in Sprague-Dawley rat at 8 mg/kg, iv measured upto 48 hrs by LC-MS/MS analysis; assay type: ADME, organism-based; details: in vivo
# [4] = Apparent volume of distribution in Sprague-Dawley rat at 40 mg/kg, IG measured upto 48 hrs by LC-MS/MS analysis; assay type: ADME, organism-based; details: in vivo, po
# [5] = Half life in Sprague-Dawley rat at 8 mg/kg, iv measured upto 48 hrs by LC-MS/MS analysis; assay type: ADME, organism-based; details: in vivo, iv, 8 mg/kg, 48 h
# [6] = Apparent volume of distribution in Sprague-Dawley rat at 8 mg/kg, iv measured upto 48 hrs by LC-MS/MS analysis; assay type: ADME, organism-based; details: in vivo, iv, 8 mg/kg, 48 h
# [7] = AUC (0 to t) in Sprague-Dawley rat at 10 mg/kg, ip measured upto 48 hrs by LC-MS/MS analysis; assay type: ADME, organism-based; set-up: time < 48 hrs, dose 10 mg/kg, route ip; details: in vivo
# [8] = Cmax in Sprague-Dawley rat at 10 mg/kg, ip measured upto 48 hrs by LC-MS/MS analysis; assay type: ADME, organism-based; set-up: time < 48 hrs, dose 10 mg/kg, route ip; details: in vivo
# [9] = system: MC-38; assay: Antitumor activity against mouse MC38 cells expressing human PD-L1 protein assessed as reduction in cell viability measured after 48 hrs by CCK-8 assay; assay type: functional, cell-based; details: MC-38, 48 h
# [10] = Cmax in Sprague-Dawley rat at 8 mg/kg, iv measured upto 48 hrs by LC-MS/MS analysis; assay type: ADME, organism-based; set-up: time < 48 hrs, dose 8 mg/kg, route iv; details: in vivo
# [11] = Clearance in Sprague-Dawley rat at 40 mg/kg, IG measured upto 48 hrs by LC-MS/MS analysis; assay type: ADME, organism-based; details: in vivo, po, 40 mg/kg, 48 h
# [12] = AUC (0 to t) in Sprague-Dawley rat at 8 mg/kg, iv measured upto 48 hrs by LC-MS/MS analysis; assay type: ADME, organism-based; set-up: dose 8 mg/kg, time < 48 hrs, route iv; details: in vivo
# [13] = AUC (0 to infinity) in Sprague-Dawley rat at 8 mg/kg, iv measured upto 48 hrs by LC-MS/MS analysis; assay type: ADME, organism-based; set-up: time < 48 hrs, dose 8 mg/kg, route iv; details: in vivo
# [14] = Clearance in Sprague-Dawley rat at 8 mg/kg, iv measured upto 48 hrs by LC-MS/MS analysis; assay type: ADME, organism-based; details: in vivo, iv, 8 mg/kg, 48 h
# [15] = Apparent volume of distribution in Sprague-Dawley rat at 10 mg/kg, ip measured upto 48 hrs by LC-MS/MS analysis; assay type: ADME, organism-based; details: in vivo
# [16] = Cmax in Sprague-Dawley rat at 40 mg/kg, IG measured upto 48 hrs by LC-MS/MS analysis; assay type: ADME, organism-based; set-up: dose 40 mg/kg, time < 48 hrs, route ig; details: in vivo, po
# [17] = Bioavailability in Sprague-Dawley rat at 40 mg/kg, IG measured upto 48 hrs by LC-MS/MS analysis; assay type: ADME, organism-based; details: in vivo, po
# [18] = Half life in Sprague-Dawley rat at 10 mg/kg, ip measured upto 48 hrs by LC-MS/MS analysis; assay type: ADME, organism-based; details: in vivo
# [19] = Tmax in Sprague-Dawley rat at 10 mg/kg, ip measured upto 48 hrs by LC-MS/MS analysis; assay type: ADME, organism-based; details: in vivo
# [20] = AUC (0 to infinity) in Sprague-Dawley rat at 40 mg/kg, IG measured upto 48 hrs by LC-MS/MS analysis; assay type: ADME, organism-based; set-up: time < 48 hrs, dose 40 mg/kg, route ig; details: in vivo, po, 48 h
# [21] = AUC (0 to t) in Sprague-Dawley rat at 40 mg/kg, IG measured upto 48 hrs by LC-MS/MS analysis; assay type: ADME, organism-based; set-up: dose 40 mg/kg, time < 48 hrs, route ig; details: in vivo, po
# [22] = AUC (0 to infinity) in Sprague-Dawley rat at 10 mg/kg, ip measured upto 48 hrs by LC-MS/MS analysis; assay type: ADME, organism-based; set-up: time < 48 hrs, dose 10 mg/kg, route ip; details: in vivo
# [23] = Clearance in Sprague-Dawley rat at 10 mg/kg, ip measured upto 48 hrs by LC-MS/MS analysis; assay type: ADME, organism-based; details: in vivo
# [24] = Half life in Sprague-Dawley rat at 40 mg/kg, IG measured upto 48 hrs by LC-MS/MS analysis; assay type: ADME, organism-based; details: in vivo, po, 40 mg/kg, 48 h
# Chain of Programmed cell death protein 1/Programmed cell death 1 ligand 1 (Q15116 whole entry): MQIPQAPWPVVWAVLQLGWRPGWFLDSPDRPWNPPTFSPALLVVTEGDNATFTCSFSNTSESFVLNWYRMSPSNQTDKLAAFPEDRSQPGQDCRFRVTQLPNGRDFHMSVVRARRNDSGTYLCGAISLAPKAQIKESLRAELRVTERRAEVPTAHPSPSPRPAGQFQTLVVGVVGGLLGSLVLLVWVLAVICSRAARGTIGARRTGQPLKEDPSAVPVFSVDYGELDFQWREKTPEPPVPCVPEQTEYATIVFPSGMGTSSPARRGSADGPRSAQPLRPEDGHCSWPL
# Chain of Programmed cell death protein 1/Programmed cell death 1 ligand 1 (Q9NZQ7 whole entry): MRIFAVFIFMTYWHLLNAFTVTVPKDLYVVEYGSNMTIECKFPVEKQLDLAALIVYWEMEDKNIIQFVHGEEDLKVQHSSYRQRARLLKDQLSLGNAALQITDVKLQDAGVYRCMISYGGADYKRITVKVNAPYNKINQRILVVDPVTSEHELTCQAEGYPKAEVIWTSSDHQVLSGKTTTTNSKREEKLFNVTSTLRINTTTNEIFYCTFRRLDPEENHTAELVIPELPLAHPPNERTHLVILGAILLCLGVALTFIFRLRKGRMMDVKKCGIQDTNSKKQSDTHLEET
smiles,measurement,setting,value
COc1c(COc2ccc(CNCCNC(C)=O)c(OCc3cccnc3)c2)cccc1-c1ccccc1,IC50,[1],9.4 µM
N#Cc1cccc(COc2cc(OCc3cccc(-c4ccccc4F)c3F)ccc2CN[C@@H](CO)C(=O)O)c1,IC50,[1],115 µM
COc1c(COc2ccc(CNCCO)c(OCc3ccc(F)cc3)c2)cccc1-c1ccccc1,IC50,[1],8.6 µM
COc1c(COc2ccc(CNCC(=O)O)c(OCc3cccc(C#N)c3)c2)cccc1-c1ccccc1,IC50,[1],5.5 µM
COc1cc(COc2cc(OCc3cccc(-c4ccccc4)c3OC)ccc2CNCCNC(C)=O)ccn1,IC50,[1],13.7 µM
COc1c(COc2ccc(CNCCO)c(OCc3cncc(C#N)c3)c2)cccc1-c1ccccc1,IC50,[1],0.8 µM
COc1c(NCc2ccc(OCc3ccc(F)cc3)c(CNCCO)c2)cccc1-c1ccc2cc[nH]c2c1,IC50,[1],> 32 µM
N#Cc1cccc(COc2cc(OCc3cccc(-c4ccccc4F)c3Cl)ccc2CNCCO)c1,IC50,[1],12.7 µM
same,Activity,[2],Non-Toxic
COc1c(COc2ccc(CN3CCC[C@H]3C(=O)O)c(OCc3cccc(C#N)c3)c2)cccc1-c1ccccc1,IC50,[1],18.9 µM
COC(=O)c1ccc(COc2ccc(CNc3cccc(-c4ccccc4)c3OC)cc2CNCCO)cc1,IC50,[1],> 32 µM
COc1c(COc2ccc(CN[C@@H](CO)C(=O)O)c(OCc3cccc(C#N)c3)c2)cccc1-c1ccccc1,IC50,[1],2.6 µM
CC(=O)NCCNCc1ccc(OCc2cccc(-c3ccccc3F)c2C)cc1OCc1cncc(C#N)c1,IC50,[1],24.3 µM
same,Activity,[2],Non-Toxic
N#Cc1cccc(COc2cc(OCc3cccc(-c4ccccc4F)c3Cl)ccc2CN2CC(C(=O)O)C2)c1,IC50,[1],33.6 µM
COc1c(COc2ccc(CN3CCC(O)C3)c(OCc3cncc(C#N)c3)c2)cccc1-c1ccccc1 (configuration not stated),IC50,[1],6.2 µM
COc1c(COc2ccc(CNCCNC(C)=O)c(OCc3cccc(C#N)c3)c2)cccc1-c1ccccc1F,IC50,[1],2.4 µM
COc1c(COc2ccc(CN[C@@H](CO)C(=O)O)c(OCc3cccc(C#N)c3)c2)cccc1-c1ccccc1F,IC50,[1],2130 µM
COc1c(COc2ccc(CNCCNC(C)=O)c(OCc3cccc(C)c3)c2)cccc1-c1ccccc1,IC50,[1],18.3 µM
COc1c(COc2ccc(CNCCNC(C)=O)c(OCc3ccc(C#N)cc3)c2)cccc1-c1ccccc1,IC50,[1],22.7 µM
Cc1c(COc2ccc(CNCCO)c(OCc3cccc(C#N)c3)c2)cccc1-c1ccccc1F,IC50,[1],37.6 µM
COc1c(COc2cc(OCc3cncc(C#N)c3)c(CNCCNC(C)=O)cc2Cl)cccc1-c1ccccc1F,IC50,[1],468 µM
COc1c(NCc2ccc(OCc3cccc(C#N)c3)c(CNCCNC(C)=O)c2)cccc1-c1ccc2ccccc2c1,IC50,[1],> 32 µM
COc1c(COc2ccc(CN3CCC[C@@H]3C(=O)O)c(OCc3cccc(C#N)c3)c2)cccc1-c1ccccc1,IC50,[1],19.4 µM
COc1c(NCc2ccc(OCc3ccc(C(=O)O)cc3)c(CNCCO)c2)cccc1-c1ccccc1,IC50,[1],> 32 µM
COc1c(COc2ccc(CNCCNC(C)=O)c(OCc3cccc(C#N)c3)c2)cccc1-c1ccc2c(c1)OCCO2,IC50,[1],2.9 µM
COc1c(COc2ccc(CNCCNC(C)=O)c(OCc3cncc(C#N)c3)c2)cccc1-c1ccccc1,IC50,[1],1.6 µM
COc1c(COc2ccc(CNCCNC(C)=O)c(OCc3cccc(C#N)c3)c2)cccc1-c1ccc(F)cc1,IC50,[1],16 µM
COc1c(NCc2ccc(OCc3cccc(C#N)c3)c(CNCCO)c2)cccc1-c1ccccc1,IC50,[1],32 µM
Cc1c(COc2ccc(CNCCO)c(OCc3cncc(C#N)c3)c2)cccc1-c1ccccc1F,IC50,[1],8.5 µM
same,Activity,[2],Non-Toxic
COc1c(NCc2ccc(OCc3cccc(C#N)c3)c(CNCCNC(C)=O)c2)cccc1-c1ccccc1,IC50,[1],> 32 µM
N#Cc1cncc(COc2cc(OCc3cccc(-c4ccccc4F)c3Cl)ccc2CN[C@@H](CO)C(=O)O)c1,IC50,[1],7.3 µM
same,Activity,[2],Non-Toxic
COc1c(NCc2ccc(OCc3cccc(C#N)c3)c(CNCCO)c2)cccc1-c1ccc2cc[nH]c2c1,IC50,[1],> 32 µM
COc1c(NCc2ccc(OCc3ccc(F)cc3)c(CNCCNC(C)=O)c2)cccc1-c1ccc2cc[nH]c2c1,IC50,[1],> 32 µM
COc1c(COc2ccc(CN3CC(C(=O)O)C3)c(OCc3cncc(C#N)c3)c2)cccc1-c1ccccc1,IC50,[1],4.7 µM
COc1c(COc2ccc(CN[C@H](CO)C(=O)O)c(OCc3cccc(C#N)c3)c2)cccc1-c1ccccc1,IC50,[1],3.2 µM
COc1c(COc2ccc(CNCCNC(C)=O)c(OCc3cccnc3F)c2)cccc1-c1ccccc1,IC50,[1],12.9 µM
COc1nc(OCc2cccc(-c3ccccc3)c2C)ccc1CNCCNC(C)=O,Activity,[2],Non-Toxic
COc1c(COc2cc(OCc3cncc(C#N)c3)c(CNCCO)cc2Cl)cccc1-c1ccccc1F,IC50,[1],348 µM
COc1c(COc2ccc(CNCCNC(C)=O)c(OCc3cccc(C#N)c3)c2)cccc1-c1ccccc1,IC50,[1],23.3 µM
"COc1c(COc2ccc(CN[C@H](C(=O)O)C(C)O)c(OCc3cccc(C#N)c3)c2)cccc1-c1ccccc1 (single isomer, unassigned)",IC50,[1],17.3 µM
N#Cc1cccc(COc2cc(OCc3cccc(-c4ccccc4F)c3F)ccc2CNCCO)c1,IC50,[1],130 µM
N#Cc1cccc(COc2cc(OCc3cccc(-c4ccccc4F)c3Cl)ccc2CNCC(=O)O)c1,Tmax,[3],4.8 min
same,Vz,[4],65.83 L/kg
same,t1/2,[5],6.6 min
same,Vz,[6],2.04 L/kg
same,IC50,[1],6 µM
same,AUC(0-t) at 48 h,[7],1970 ng·h/mL
same,Cmax,[8],786 ng/mL
same,IC50,[9],> 8 µM
same,Cmax,[10],2530 ng/mL
same,CL,[11],572.5 mL/min/kg
same,AUC(0-t) at 48 h,[12],1370 ng·h/mL
same,AUC(0-inf),[13],1840 ng·h/mL
same,CL,[14],75.3 mL/min/kg
same,Vz,[15],8.28 L/kg
same,Activity,[2],Non-Toxic
same,Cmax,[16],1290 ng/mL
same,bioavailability,[17],42%
same,half-life,[18],97.8 min
same,Tmax,[19],49.8 min
same,AUC,[20],2869.12 ng·h/mL
same,AUC(0-t) at 48 h,[21],2660 ng·h/mL
same,AUC(0-inf),[22],2160 ng·h/mL
same,CL/F,[23],78 mL/min/kg
same,t1/2,[24],188 min
COc1c(COc2ccc(CNCCNC(C)=O)c(OCc3cncc(C#N)c3)c2)cccc1-c1ccccc1F,IC50,[1],1000 µM
COc1c(COc2ccc(CNCCNC(C)=O)c(OCc3cccc(C#N)c3)c2)cccc1-c1ccccc1Cl,IC50,[1],3.6 µM
COc1c(COc2ccc(CN[C@@H](CO)C(=O)O)c(OCc3cncc(C#N)c3)c2)cccc1-c1ccccc1F,IC50,[1],616 µM
COc1c(NCc2ccc(OCc3cccc(C#N)c3)c(CNCCO)c2)cccc1-c1ccc2ccccc2c1,IC50,[1],> 32 µM
COc1c(COc2ccc(CNCCO)c(OCc3cccc(C#N)c3)c2)cccc1-c1ccccc1F,IC50,[1],1660 µM
COc1c(COc2ccc(CNCCNC(C)=O)c(OCc3cccc(F)c3)c2)cccc1-c1ccccc1,IC50,[1],11.3 µM
COc1c(NCc2ccc(OCc3ccc(F)cc3)c(CNCCO)c2)cccc1-c1ccc2ccccc2c1,IC50,[1],> 32 µM
COc1c(COc2ccc(CNCCNC(C)=O)c(OCc3ccc(F)cc3)c2)cccc1-c1ccccc1,IC50,[1],> 32 µM
N#Cc1cccc(COc2cc(OCc3cccc(-c4ccccc4F)c3)ccc2CNCCO)c1,IC50,[1],> 500 µM
COc1c(COc2ccc(OCc3cccc(C#N)c3)c(CNCCNC(C)=O)c2)cccc1-c1ccccc1,IC50,[1],> 32 µM
COc1c(COc2ccc(CNCCO)c(OCc3cncc(C#N)c3)c2)cccc1-c1ccccc1F,IC50,[1],417 µM
N#Cc1cccc(COc2cc(OCc3cccc(-c4ccccc4F)c3Cl)ccc2CN2CCC(O)C2)c1 (configuration not stated),IC50,[1],19.2 µM
same,Activity,[2],Non-Toxic
COc1c(COc2ccc(CN3C[C@@H](O)C[C@@H]3C(=O)O)c(OCc3cccc(C#N)c3)c2)cccc1-c1ccccc1,IC50,[1],21.8 µM
COc1c(COc2ccc(OCc3cccc(C#N)c3)c(CNCCO)c2)cccc1-c1ccccc1,IC50,[1],> 32 µM
COc1c(COc2ccc(CNCCO)c(OCc3cccc(C#N)c3)c2)cccc1-c1ccccc1,IC50,[1],2.4 µM
COc1c(COc2ccc(CNCCNC(C)=O)c(OCc3cccc(C#N)c3)c2)cccc1-c1ccc2ccccc2c1,IC50,[1],16 µM
COc1c(COc2ccc(CNCCNC(C)=O)c(OCc3cccc(C#N)c3)c2)cccc1-c1cccc(F)c1,IC50,[1],5.5 µM
COc1c(NCc2ccc(OCc3ccc(F)cc3)c(CNCCO)c2)cccc1-c1ccccc1,IC50,[1],> 32 µM
